Data published in US20260223850A1, “SUBSTITUTED PYRROLIDONE COMPOUND, PREPARATION METHOD THEREFOR, COMPOSITION AND APPLICATION THEREOF” (QINGDAO KINGAGROOT CHEMICAL COMPOUND CO., LTD., priority 2023, published 2026).

Tests used:
Test in all cases: Seedling stage sealing experiment for water-seeding
Assay type in all cases: in vivo
Leptochloa chinensis = conditions: 120 g a.i./ha, 15 days, fresh weight control rate
Text: (1) Seedling Stage Sealing Experiment for Water-Seeding:
The activity level criteria for plant damage (i.e., growth control rate) are as follows: • Level 9: completely dead; • Level 8: growth control rate greater than or equal to 90% and less than 100%; • Level 7: growth control rate greater than or equal to 80% and less than 90%; • Level 6: growth control rate greater than or equal to 70% and less than 80%; • Level 5: growth control rate greater than or equal to 50% and less than 70%; • Level 4: growth control rate greater than or equal to 30% and less than 50%; • Level 3: growth control rate greater than or equal to 20% and less than 30%; • Level 2: growth control rate greater than or equal to 10% and less than 20%; • Level 1: growth control rate less than 10%; • Level 0: no effect.
The above growth control rates are fresh weight control rates.
Echinochloa phyllopogon, Digitaria sanguinalis, Huaidao (rice cultivar), etc. were broadcasted on the surface of nutrition bowls filled with soil and fully covered by soil. The foregoing well-prepared nutrition bowls were then placed in a cultivation box with water filled to a suitable height to keep the soil in the nutrition bowls moist. A test compound of the present invention was individually dissolved with acetone, then diluted into solution of a certain concentration using a certain amount of water, and sprayed using a spray tower. The plants were placed on a greenhouse seedbed and cultured for 15 days, and the experimental results were then collected. The compound was applied at 120, 60, 30 and 15 g a.i./ha in triplicate, and the results were averaged.

Echinochloa phyllopogon = conditions: 120 g a.i./ha, seedling stage sealing, 15 days, fresh weight control rate
Procedure, shortened: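 Seeds broadcast on soil in nutrition bowls, covered, kept moist in a water-filled box; compound in acetone diluted with water and spray-tower applied at 120, 60, 30 and 15 g a.i./ha, triplicate. Scored after 15 days in greenhouse on a 0–9 scale of fresh-weight growth control, averaged.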

Echinochloa crusgalli = conditions: 120 g a.i./ha, seedling stage sealing, 15 days, fresh weight control rate

| Compound | Leptochloa chinensis activity level (growth control rate) (Leptochloa chinensis) | Echinochloa phyllopogon activity level (growth control rate) (Echinochloa phyllopogon) | Echinochloa crusgalli activity level (growth control rate) (Echinochloa crusgalli) |
| --- | --- | --- | --- |
| Cc1cccc([C@H]2CN(C)C(=O)[C@@H]2C(=O)Nc2cnn(C3CC3)c2Cl)c1 [128′] | 9 | 8 (Level 8: growth control rate greater than or equal to 90% and less than 100%) | 9 |
| Cc1cccc([C@H]2CN(C)C(=O)[C@@H]2C(=O)Nc2cnn(CC(F)(F)F)c2Cl)c1 [129′] | 9 | 8 (Level 8: growth control rate greater than or equal to 90% and less than 100%) | 9 |
| Cc1cccc([C@H]2CN(C)C(=O)[C@@H]2C(=O)Nc2cnn(C(C)C)c2Cl)c1 [130′] | 9 | 9 | 9 |
| CCc1c(NC(=O)[C@H]2C(=O)N(C)C[C@@H]2c2cccc(C)c2)cnn1C [135′] | 9 | 7 (Level 7: growth control rate greater than or equal to 80% and less than 90%) | 9 |
| Cc1cccc([C@H]2CN(C)C(=O)[C@@H]2C(=O)Nc2c(O)nn(C)c2F)c1 [147′] | 9 | 8 (Level 8: growth control rate greater than or equal to 90% and less than 100%) | 9 |
| CN1C[C@H](c2cccc(C3CCCC3)c2)[C@@H](C(=O)Nc2cnn(C)c2Cl)C1=O [152′] | 9 | 8 (Level 8: growth control rate greater than or equal to 90% and less than 100%) | 9 |
| CN1C[C@H](c2cccc(C(F)F)c2)[C@@H](C(=O)Nc2cnn(C)c2Cl)C1=O [154′] | 9 | 8 (Level 8: growth control rate greater than or equal to 90% and less than 100%) | 9 |
| CN1C[C@H](c2cccc(C(F)(F)F)c2)[C@@H](C(=O)Nc2cnn(C(F)F)c2Cl)C1=O [158′] | 9 | 8 (Level 8: growth control rate greater than or equal to 90% and less than 100%) | 9 |
| CN1C[C@H](c2cccc(C(F)(F)F)c2)[C@@H](C(=O)Nc2cnn(CCCl)c2Cl)C1=O [160′] | 9 | 5 (Level 5: growth control rate greater than or equal to 50% and less than 70%) | 6 (Level 6: growth control rate greater than or equal to 70% and less than 80%) |
| CN1C[C@H](c2cccc(C(F)(F)F)c2)[C@@H](C(=O)Nc2cnn(CC(F)(F)F)c2Cl)C1=O [161′] | 9 | 8 (Level 8: growth control rate greater than or equal to 90% and less than 100%) | 9 |
| CN1C[C@H](c2cccc(C(F)(F)F)c2)[C@@H](C(=O)Nc2cnn(C)c2I)C1=O [186′] | 9 | 7 (Level 7: growth control rate greater than or equal to 80% and less than 90%) | 9 |
| CCc1c(NC(=O)[C@H]2C(=O)N(C)C[C@@H]2c2cccc(C(F)(F)F)c2)cnn1C [190′] | 9 | 8 (Level 8: growth control rate greater than or equal to 90% and less than 100%) | 9 |
| COCc1c(NC(=O)[C@H]2C(=O)N(C)C[C@@H]2c2cccc(C(F)(F)F)c2)cnn1C [193′] | 9 | 7 (Level 7: growth control rate greater than or equal to 80% and less than 90%) | 9 |
